Reference: US20250179055A1, “Substituted 2-(pyrrolidine-3-yl)acetic acid derivative, preparation method and use thereof” (INNOVSTONE THERAPEUTICS LIMITED, priority 2023, published 2025)

What follows are compounds tested against Lp(a) assembly in HepG2 cells overexpressing ApoA protein (Homo sapiens (Human), UniProt P08519) (assay: ELISA assay on screening Lp(a) assembly inhibition). Conditions: HepG2 cells overexpressing ApoA protein, 24 h, ELISA of supernatant.
Type: cell-based
Experimental: Test Example 1 and Methods of ELISA Assay on Screening Lp(a) Assembly Inhibition
• 1) Preheated the culture media, DPBS, and pancreatin in a 37° C. water bath in advance. • 2) Digested cells with pancreatin, transferred the cell suspension to a 15 mL centrifuge tube, and centrifuged at 1000 rpm for 5 min. • 3) Resuspended the cells with culture media and transferred the cell suspension to a new T75 cell culture flask. • 4) Cultured at 37° C. in a 5% CO2 incubator.
• 1) Seeded HepG2 cells overexpressing of ApoA protein into a 96-well plate at 100 μL per well and incubated overnight for attachment. • 2) Replaced with fresh culture media the next day, then added diluted compounds, and cultured the cell plate in a 5% CO2, 37° C. incubator for 24 h.
• 1) Added 10 μL of 1.5 M EACA to each well. • 2) Centrifuged at 1000 rpm for 1 min, and transferred 100 μL of cell culture supernatant to a pre-coated ELISA plate.
• 1) Added 100 μL of capture antibody to each well of a pre-coated ELISA plate and incubated overnight at 25° C. • 2) Added 300 μL of washing solution to each well and washed 5 times for 1 min each time. • 3) Added 100 μL of blocking solution to each well and incubated at 25° C. for 2 h. • 4) Added 300 μL of washing solution to each well and washed 5 times for 1 min each time. • 5) Added 100 μL of sample to each well and incubated at 25° C. for 1 h. • 6) Added 300 μL of washing solution to each well and washed 5 times for 1 min each time. • 7) Added 100 μL of detection antibody to each well and incubated at 25° C. for 1 h. • 8) Added 300 μL of washing solution to each well and washed 5 times for 1 min each time. • 9) Added 100 μL substrate solution (Color Reagent A: Color Reagent B, 1:1) to each well and incubated for 20 min at 25° C. in the dark. • 10) Added […] of stop solution to each well, gently blowed and sucked several times with the pipette tip, and read within 5 min.
[formula] • X: cpd concentration • Y: inhibition % • Top and Bottom: Plateaus in same units as Y • log IC50: same log units as X • HillSlope: Slope factor or Hill slope

Chain of Lp(a) assembly in HepG2 cells overexpressing ApoA protein (P08519 20-2040): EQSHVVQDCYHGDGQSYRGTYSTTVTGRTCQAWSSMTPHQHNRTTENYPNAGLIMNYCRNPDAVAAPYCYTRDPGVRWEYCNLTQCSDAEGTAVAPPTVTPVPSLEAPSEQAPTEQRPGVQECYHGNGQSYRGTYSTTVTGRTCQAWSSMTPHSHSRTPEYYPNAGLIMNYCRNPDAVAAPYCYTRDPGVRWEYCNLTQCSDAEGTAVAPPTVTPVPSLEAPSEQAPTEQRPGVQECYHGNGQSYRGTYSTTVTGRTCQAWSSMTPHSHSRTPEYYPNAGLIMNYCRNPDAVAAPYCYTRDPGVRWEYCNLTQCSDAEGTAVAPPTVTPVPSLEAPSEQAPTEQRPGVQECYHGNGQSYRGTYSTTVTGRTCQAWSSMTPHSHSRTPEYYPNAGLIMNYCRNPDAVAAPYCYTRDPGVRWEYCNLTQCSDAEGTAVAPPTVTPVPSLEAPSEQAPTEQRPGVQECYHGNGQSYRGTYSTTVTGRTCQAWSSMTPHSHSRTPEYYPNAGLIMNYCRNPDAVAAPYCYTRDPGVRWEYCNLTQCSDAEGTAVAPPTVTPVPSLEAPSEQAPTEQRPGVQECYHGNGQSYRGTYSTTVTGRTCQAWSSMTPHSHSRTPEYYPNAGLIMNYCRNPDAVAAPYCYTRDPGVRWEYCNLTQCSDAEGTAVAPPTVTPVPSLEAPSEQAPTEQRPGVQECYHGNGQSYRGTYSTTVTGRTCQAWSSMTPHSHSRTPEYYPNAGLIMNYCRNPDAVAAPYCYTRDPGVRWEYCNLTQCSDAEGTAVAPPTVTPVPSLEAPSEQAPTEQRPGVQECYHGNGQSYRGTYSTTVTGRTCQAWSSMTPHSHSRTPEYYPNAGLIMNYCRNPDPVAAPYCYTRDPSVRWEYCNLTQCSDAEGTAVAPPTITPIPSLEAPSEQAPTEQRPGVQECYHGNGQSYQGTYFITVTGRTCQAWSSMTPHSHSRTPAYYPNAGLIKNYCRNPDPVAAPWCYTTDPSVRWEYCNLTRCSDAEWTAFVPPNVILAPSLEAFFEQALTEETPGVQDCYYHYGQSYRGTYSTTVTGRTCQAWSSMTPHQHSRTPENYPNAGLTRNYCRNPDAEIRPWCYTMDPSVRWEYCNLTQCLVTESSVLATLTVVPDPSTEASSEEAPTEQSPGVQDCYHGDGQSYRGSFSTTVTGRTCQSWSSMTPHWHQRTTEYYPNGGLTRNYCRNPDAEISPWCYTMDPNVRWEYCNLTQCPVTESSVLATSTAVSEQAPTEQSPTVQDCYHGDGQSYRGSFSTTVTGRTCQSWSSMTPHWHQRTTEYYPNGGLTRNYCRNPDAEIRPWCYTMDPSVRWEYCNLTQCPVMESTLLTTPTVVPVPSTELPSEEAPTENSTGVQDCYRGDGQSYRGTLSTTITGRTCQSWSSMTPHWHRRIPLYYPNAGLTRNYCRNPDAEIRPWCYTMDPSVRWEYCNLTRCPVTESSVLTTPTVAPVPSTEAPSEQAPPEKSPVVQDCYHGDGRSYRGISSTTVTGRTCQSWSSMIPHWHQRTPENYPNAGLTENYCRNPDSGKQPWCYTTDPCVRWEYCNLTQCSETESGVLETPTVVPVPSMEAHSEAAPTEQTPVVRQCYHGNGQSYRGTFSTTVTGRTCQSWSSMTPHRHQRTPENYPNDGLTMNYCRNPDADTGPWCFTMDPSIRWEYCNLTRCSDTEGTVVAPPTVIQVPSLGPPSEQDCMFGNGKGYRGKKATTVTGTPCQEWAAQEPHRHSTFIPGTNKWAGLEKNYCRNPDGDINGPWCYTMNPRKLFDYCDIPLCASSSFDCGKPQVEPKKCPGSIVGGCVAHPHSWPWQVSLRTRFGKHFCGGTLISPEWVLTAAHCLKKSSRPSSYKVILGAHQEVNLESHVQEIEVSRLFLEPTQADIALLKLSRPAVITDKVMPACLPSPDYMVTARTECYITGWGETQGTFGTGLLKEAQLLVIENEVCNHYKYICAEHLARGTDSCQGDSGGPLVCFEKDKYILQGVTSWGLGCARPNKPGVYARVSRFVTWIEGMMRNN

| Structure (SMILES) | IC50 |
| --- | --- |
| O=C(O)[C@@H](Cc1cccc(CNC(=O)N(CCOc2cccc(C[C@H](C(=O)O)[C@H]3CCNC3)c2)Cc2cccc(C[C@H](C(=O)O)[C@H]3CCNC3)c2)c1)[C@H]1CCNC1 [Compound 141, (S)-3-(3-(2-(1,3-bis(3-((S)-2-carboxy-2-((R)-pyrrolidin-3-yl)ethyl)benzyl)ureido)ethoxy)phenyl)-2-((R)-pyrrolidin-3-yl)propanoic acid] | 1.02 nM |
| O=C(Cc1cccc(C[C@H](C(=O)O)[C@H]2CCNC2)c1)NCCOc1cccc(C[C@H](C(=O)O)[C@H]2CCNC2)c1 [Compound 142, (S)-3-(3-(2-((2-(3-((S)-2-carboxy-2-((R)-pyrrolidin-3-yl)ethyl)phenoxy)ethyl)amino)-2-oxoethyl)phenyl)-2-((R)-pyrrolidin-3-yl)propanoic acid] | 3.19 nM |
| O=C(O)[C@@H](Cc1noc2cc(CN(Cc3ccc4c(C[C@H](C(=O)O)[C@H]5CCNC5)noc4c3)Cc3ccc4c(C[C@H](C(=O)O)[C@H]5CCNC5)noc4c3)ccc12)[C@H]1CCNC1 [Compound 144, (2S,2′S,2″S)-3,3′,3″-((nitrilotris(methylene))tris(benzo[d]isoxazole-6,3-diyl))tris(2-((R)-pyrrolidin-3-yl)propanoic acid)] | 1.18 nM |
| O=C(O)[C@@H](Cc1cccc(COC(=O)N(CCOc2cccc(C[C@H](C(=O)O)[C@H]3CCNC3)c2)Cc2cccc(C[C@H](C(=O)O)[C@H]3CCNC3)c2)c1)[C@H]1CCNC1 [Compound 145, (S)-3-(3-(2-((3-((S)-2-carboxy-2-((R)-pyrrolidin-3-yl)ethyl)benzyl)(((3-((S)-2-carboxy-2-((R)-pyrrolidin-3-yl)ethyl)benzyl)oxy)carbonyl)amino)ethoxy)phenyl)-2-((R)-pyrrolidin-3-yl)propanoic acid] | 1.72 nM |
| O=C(O)[C@@H](Cc1cccc(CC(=O)N(CCNc2cccc(C[C@H](C(=O)O)[C@H]3CCNC3)c2)Cc2cccc(C[C@H](C(=O)O)[C@H]3CCNC3)c2)c1)[C@H]1CCNC1 [Compound 146, (S)-3-(3-(2-((3-((S)-2-carboxy-2-((R)-pyrrolidin-3-yl)ethyl)benzyl)(2-((3-((S)-2-carboxy-2-((R)-pyrrolidin-3-yl)ethyl)phenyl)amino)ethyl)amino)-2-oxoethyl)phenyl)-2-((R)-pyrrolidin-3-yl)propanoic acid] | 0.93 nM |
| O=C(O)[C@@H](Cc1cccc(CCC(=O)N(CCNc2cccc(C[C@H](C(=O)O)[C@H]3CCNC3)c2)Cc2cccc(C[C@H](C(=O)O)[C@H]3CCNC3)c2)c1)[C@H]1CCNC1 [Compound 147, (S)-3-(3-(3-((3-((S)-2-carboxy-2-((R)-pyrrolidin-3-yl)ethyl)benzyl)(2-((3-((S)-2-carboxy-2-((R)-pyrrolidin-3-yl)ethyl)phenyl)amino)ethyl)amino)-3-oxopropyl)phenyl)-2-((R)-pyrrolidin-3-yl)propanoic acid] | 0.86 nM |
| O=C(O)[C@@H](Cc1cccc(CCC(=O)N(CCOc2cccc(C[C@H](C(=O)O)[C@H]3CCNC3)c2)CCOc2cccc(C[C@H](C(=O)O)[C@H]3CCNC3)c2)c1)[C@H]1CCNC1 [Compound 148, (2S,2′S)-3,3′-(((((3-(3-((S)-2-carboxy-2-((R)-pyrrolidin-3-yl)ethyl)phenyl)propanoyl)azanediyl)bis(ethane-2,1-diyl))bis(oxy))bis(3,1-phenylene))bis(2-((R)-pyrrolidin-3-yl)propanoic acid)] | 1.5 nM |
| O=C(O)[C@@H](Cc1cccc(OCc2cc(COc3cccc(C[C@H](C(=O)O)[C@H]4CCNC4)c3)cc(COc3cccc(C[C@H](C(=O)O)[C@H]4CCNC4)c3)c2)c1)[C@H]1CCNC1 [Compound 149, (2S,2′S,2″S)-3,3′,3″-(((benzene-1,3,5-triyltris(methylene))tris(oxy))tris(benzene-3,1-diyl))tris(2-((R)-pyrrolidin-3-yl)propanoic acid)] | 2.53 nM |
| O=C(O)[C@@H](Cc1cncc(CC(=O)N(CCOc2cncc(C[C@H](C(=O)O)[C@H]3CCNC3)c2)Cc2cncc(C[C@H](C(=O)O)[C@H]3CCNC3)c2)c1)[C@H]1CCNC1 [Compound 153, (S)-3-(5-(2-(2-(5-((S)-2-carboxy-2-((R)-pyrrolidin-3-yl)ethyl)pyridin-3-yl)-N-((5-((S)-2-carboxy-2-((R)-pyrrolidin-3-yl)ethyl)pyridin-3-yl)methyl)acetamido)ethoxy)pyridin-3-yl)-2-((R)-pyrrolidin-3-yl)propanoic acid] | 2.91 nM |
| O=C(O)[C@@H](Cc1cccc(CC(=O)N(CCSc2cccc(C[C@H](C(=O)O)[C@H]3CCNC3)c2)Cc2cccc(C[C@H](C(=O)O)[C@H]3CCNC3)c2)c1)[C@H]1CCNC1 [Compound 158, (S)-3-(3-(2-((3-((S)-2-carboxy-2-((R)-pyrrolidin-3-yl)ethyl)benzyl)(2-((3-((S)-2-carboxy-2-((R)-pyrrolidin-3-yl)ethyl)phenyl)thio)ethyl)amino)-2-oxoethyl)phenyl)-2-((R)-pyrrolidin-3-yl)propanoic acid] | 1.65 nM |
| O=C(O)[C@@H](Cc1cccc(CC(=O)N(CCOc2cccc(C[C@H](C(=O)O)[C@@H]3CCNC3)c2)Cc2cccc(C[C@H](C(=O)O)[C@@H]3CCNC3)c2)c1)[C@@H]1CCNC1 [Compound 210, (S)-3-(3-(2-((3-((S)-2-carboxy-2-((S)-pyrrolidin-3-yl)ethyl)benzyl)(2-(3-((S)-2-carboxy-2-((S)-pyrrolidin-3-yl)ethyl)phenoxy)ethyl)amino)-2-oxoethyl)phenyl)-2-((S)-pyrrolidin-3-yl)propanoic acid] | 1.52 nM |

The compounds below were run on serum Lp(a) (assay: Humanized mouse Lp(a) inhibition test). Conditions: 5 mg/kg oral once daily for 3 days, blood 8 h after last dose, humanized Lp(a) mice.
Type: in vivo, humanized Lp(a) transgenic mouse
Experimental: The in vivo pharmacodynamics of the compounds in reducing Lp(a) was evaluated in a humanized Lp(a) transgenic mouse model. Lp(a) mice were obtained by crossing mice expressing humanized apoB-100 with mice expressing humanized apo(a) containing 16 Kringle repeats. Female mice aged 8-9 weeks were selected for the test. Housing conditions: standard light cycle (12 h light/12 h dark), temperature 20-25° C., humidity 40-70%, free access to water and normal diet. is One day before the test, mice were divided into vehicle control group and test article group (n=5/group) according to body weight and baseline plasma Lp(a) concentration. Mice were orally administered with vehicle (normal saline, 10 mL/kg) or test compound (prepared with normal saline to 3 or 0.5 mg/mL, each mouse received 10 mL/kg), once daily (9:00 am) for 3 consecutive days, and blood was collected to determine the change of serum Lp(a). Eight hours after the last dose, 10 μL of blood was collected from the tail vein and transferred to a 1.5 mL centrifuge tube containing 90 μL of normal saline, mixed well, and left to stand on ice for 30 min. The above samples were centrifuged at 4° C., 3000 rpm for 10 min, and the supernatant was collected and placed on ice. The Lp(a) concentration in the supernatant was measured by double-antibody sandwich ELISA using an anti-apo(a) capture antibody and an HRP-conjugated anti-ApoB detection antibody, with TMB for color development. The reaction was stopped with 1 N sulfuric acid, and the OD value was read at 450 nm on a Tecan microplate reader. Inhibition rate was calculated for each dosing group. Inhibition rate (%)=(vehicle control group Lp(a) concentration or self pre-dose Lp(a) concentration post-dose Lp(a) concentration)/vehicle control group Lp(a) concentration or self pre-dose Lp(a) concentration*100.

| Structure (SMILES) | Lp(a) Inhibition Rate |
| --- | --- |
| O=C(O)[C@@H](Cc1cccc(CCN(CCOc2cccc(C[C@H](C(=O)O)[C@H]3CCNC3)c2)C(=O)Oc2cccc(C[C@H](C(=O)O)[C@H]3CCNC3)c2)c1)[C@H]1CCNC1 [Compound 162, (S)-3-(3-(2-((3-((S)-2-carboxy-2-((R)-pyrrolidin-3-yl)ethyl)phenethyl)((3-((S)-2-carboxy-2-((R)-pyrrolidin-3-yl)ethyl)phenoxy)carbonyl)amino)ethoxy)phenyl)-2-((R)-pyrrolidin-3-yl)propanoic acid] | 79% |
| O=C(O)[C@@H](Cc1cccc(OCCN(CCOc2cccc(C[C@H](C(=O)O)[C@H]3CCNC3)c2)C(=O)Oc2cccc(C[C@H](C(=O)O)[C@H]3CCNC3)c2)c1)[C@H]1CCNC1 [Compound 163, (2S,2′S)-3,3′-((((((3-((S)-2-carboxy-2-((R)-pyrrolidin-3-yl)ethyl)phenoxy)carbonyl)azanediyl)bis(ethane-2,1-diyl))bis(oxy))bis(3,1-phenylene))bis(2-((R)-pyrrolidin-3-yl)propanoic acid)] | 81% |
| O=C(O)[C@@H](Cc1cccc(CN(CCOc2cccc(C[C@H](C(=O)O)[C@H]3CCNC3)c2)C(=O)Cc2cc(C[C@H](C(=O)O)[C@H]3CCNC3)cs2)c1)[C@H]1CCNC1 [Compound 178, ((S)-3-(5-(2-((3-((S)-2-carboxy-2-((R)-pyrrolidin-3-yl)ethyl)benzyl)(2-(3-((S)-2-carboxy-2-((R)-pyrrolidin-3-yl)ethyl)phenoxy)ethyl)amino)-2-oxoethyl)thiophen-3-yl)-2-((R)-pyrrolidin-3-yl)propanoic acid)] | 84% |
